Measured values from patent publication EP0288176A1, “Tyrosine derivatives and use thereof” (AJINOMOTO CO., INC., priority 1987, dated 1988).

Assays:
[1] = Activity test: peroral administration with insulin, blood glucose decrease and blood insulin increase; assay type: in vivo, female mice of ICR-CD-1 strain; design: key to percent decrease in blood sugar (%): The symbol + means that there was no decrease in blood sugar; key to degree of increase of blood insulin: the symbol - means that there was no increase in blood insulin; conditions: 0.5 U insulin/10 g bodyweight and 3 mg compound/10 g bodyweight, compared with control group
Procedure: The absorption promoting agents according to the present invention shown in Table 1 were suspended in 0.5% CMC - 0.05 M trisHCl buffer (pH 7.8), and mixed with insulin. The resultant mixture was administered perorally to female mice of ICR-CD-1 strain (aged 5 to 7 weeks) at 0.5 U insulin/10 g bodyweight and 3 mg of the above compound/10 g bodyweight. The percent decrease of blood glucose(%) and the degree of increase of blood insulin after predetermined periods of time were compared with those of the control group, and the results are shown in Table 2.
In the Table, the figures given in the upper rows denote 1) percent of decrease in blood glucose(%) and those in the lower rows in parentheses denote 2) degree of increase in blood insulin level. The symbol + means that there was no decrease in blood sugar and the symbol - means that there was no increase in blood insulin.

[2] = Toxicity: LD50 in mice, perorally administered; conditions: mouse, in vivo, po, read-out: LD₅₀
Excerpt: Toxicity of O-alkyl tyrosine derivatives is low; each of LD₅₀ in mice perorally administered of O-methyl-N-(4-methylcinnamoyl)-L-tyrosine (S-1), O-methyl-N-(α-fluoro-4-methylcinnamoyl)-L-tyrosine (S-5), O-methyl-N-(β-chloro-4-methylcinnamoyl)-L-tyrosine (S-9) is 3.0 g/kg or higher.

Compound	percent decrease in blood sugar (%) ([1]; 30 min.)	percent decrease in blood sugar (%) ([1]; 60 min.)	LD50 [2]	also measured
COc1ccc(C[C@H](NC(=O)C(Cl)=Cc2ccc(C)cc2)C(=O)O)cc1 [Compound S-7, O-methyl-N-(α-chloro-4-methylcinnamoyl)-L-tyrosine]	+	+		percent decrease in blood sugar (%) ([1]; 15 min.): 28.6%
COc1ccc(C[C@H](NC(=O)C(F)=Cc2ccccc2)C(=O)O)cc1 [Compound S-4, O-methyl-N-(α-fluorocinnamoyl)-L-tyrosine]		+		
COc1ccc(C[C@H](NC(=O)C=C(Cl)c2ccc(C)cc2)C(=O)O)cc1 [Compound S-9, O-methyl-N-(β-chloro-4-methylcinnamoyl)-L-tyrosine]			≥ 3000 mg/kg	degree of increase of blood insulin ([1]; 60 min.): -
COc1ccc(C[C@@H](NC(=O)C=C(Cl)c2ccc(C)cc2)C(=O)O)cc1 [Compound S-10, O-methyl-N-(β-chloro-4-methylcinnamoyl)-D-tyrosine]		+		
COc1ccc(C[C@H](NC(=O)C(F)=Cc2ccc(C)cc2)C(=O)O)cc1 [Compound S-5, O-methyl-N-(α-fluoro-4-methycinnamoyl)-L-tyrosine]		+	≥ 3000 mg/kg	
COc1ccc(C[C@H](NC(=O)C=Cc2ccc(C)cc2)C(=O)O)cc1 [Compound S-1, O-methyl-N-(4-methylcinnamoyl)-L-tyrosine]			≥ 3000 mg/kg	
CCOc1ccc(C[C@H](NC(=O)C=Cc2ccc(C)cc2)C(=O)O)cc1 [Compound S-2, O-ethyl-N-(4-methylcinnamoyl)-L-tyrosine]	+			degree of increase of blood insulin ([1]; 30 min.): -
CCOc1ccc(C[C@H](NC(=O)C(F)=Cc2ccc(C)cc2)C(=O)O)cc1 [Compound S-6, O-ethyl-N-(α-fluroro-4-methylcinnamoyl)-L-tyrosine]	+	+		degree of increase of blood insulin ([1]; 15 min.): 5.3; percent decrease in blood sugar (%) ([1]; 15 min.): 29.1%; degree of increase of blood insulin ([1]; 30 min.): -; degree of increase of blood insulin ([1]; 60 min.): -
COc1ccc(C[C@@H](NC(=O)C(Cl)=Cc2ccc(C)cc2)C(=O)O)cc1 [Compound S-8, O-methyl-N-(α-chloro-4-methylcinnamoyl)-D-tyrosine]		+		
